Tests used:
[1] = Peracetic acid formation rate and stability with N-acyl donors in parent solution (double titration); format: physicochemical; settings: equimolar N-acyl donor dispersed in parent solution
Description: The other conditions (temperature, humidity, generator composition) being the same, equimolar amounts of the three N-acyl donors were dispersed in the parent solution to determine the formation rate of peracetic acid in the solution and the stability with time of such a concentration. The method adopted for quantitative determination of organic peroxyacid in the presence of a large excess of hydrogen peroxide (in this and in the following tests) was a sequential double-titration, the first of which is a permanganometric test designed to titre and eliminate any hydrogen peroxide in excess, and this was immediately followed by an iodometric titration to determine the concentration of the remaining organic peroxide. The results are shown below, both as activation rate (see FIG. 1), and stability of the peracetic acid concentration (see FIG. 2) are concerned.

[2] = Preliminary assessment of acetyl donating compounds; format: physicochemical
Description: Search work was initially directed towards finding out the best N-acyl and/or O-acyl activator of all those available and disclosed in the prior art referred to above. The features sought for in this initial search were: • a rapidly acting acylating agent (i.e. provided with an electrophilic carbonyl carbon) suitable for causing a perhydrolysis reaction due to electron-withdrawing effect on the carbonyl carbon and for providing a sufficiently high concentration of its respective peracid within short times (20–30 minutes) for the specified objects; • a good conservation under standard storage conditions (at temperatures ranging from 20° and 40° C.). • an ability to yield after activation an activated solution in which the organic peroxyacid concentration is as stable as possible. […]

[3] = system: bacterial spores (sporicidal activity); assay: Minimum effective concentration (CME) by sporicidal activity; format: cell-based; settings: minimum peracetic acid concentration with sporicidal activity over contact time of 15 minutes
Description: In the search study carried out with an endoscope washing machine, the solution was used by operating 10 full daily cycles of high-level disinfection or, better, cold-chemical sterilization for a total of 120 cycles. The contact time set for the sterilization step was 30 minutes. As it will be noted, immediately after activation, the concentration increases at a fast-rate, overcomes the minimum effective concentration level (Minimum Effective Concentration Level ═CME) equal to 0.05% w/v just after 15–20 minutes and reaches a maximum value equal to 0.35% w/v after 24 hours. During the following days, concentration decreases slowly down to a minimum effective level below which the effectiveness set forth below is not provided any longer. This threshold level (CME) was fixed and defined by means of the minimum % concentration of peracetic acid at which a sporicidal activity is still detected over a contact time of 15 minutes.

SMILES | Stability of peracetic acid concentration with time (FIG. 2) [1] | Stability under standard storage conditions [2] | Minimum Effective Concentration Level (CME) [3] [% w/v]
CC(=O)ON1C(=O)CCC1=O [N-acetoxysuccinimide] | poor stability with time | poor stability | –
CC(=O)N1CCCCCC1=O [N-acetylcaprolactam] | good stability | – | –
CC(=O)N1C(=O)CCC1=O [N-acetylsuccinimide] | behavior similar to that of N-OSU | poor stability | –
CC(=O)OO [peracetic acid] | – | – | 0.05

From patent US7235252B2, “Method of preparing organic peroxyacids” (priority 2002, dated 2007)
